Patent US9040663B2, “Melanocortin receptor-specific peptides” (AstraZeneca AB, priority 2009, dated 2015)
Read-outs that look alike come from different tables or passages of the source. Positions of bridges follow the written chain, without caps; N, C: chain ends. Non-standard residues stand in square brackets, D forms with d. Residues, ends and D or L forms follow the SMILES beside them. dPhe(4-CN) = N#Cc1ccc(C[C@@H](N)C(=O)O)cc1; Orn = NCCC[C@H](N)C(=O)O

What was measured:
hMC4-R [1] = biological target: T1, hMC4-R (Homo sapiens (Human), UniProt P32245); test: High and low density hMC4-R functional assay (cAMP, HEK293-T-REx-MC4-R cells); assay type: cell-based; conditions: for Emax: NDP-α-MSH = 100%, read-out: Intrinsic Activity (%)
MC1-R = test: Competitive inhibition binding assay using [I125]-NDP-α-MSH, MC1-R; conditions: membranes of B-16 mouse melanoma cells (endogenous MC1-R), in some instances HEK-293 hMC1-R
Protocol: 7.1 Competitive Inhibition Assay using [I^125]-NDP-α-MSH.
A competitive inhibition binding assay was performed for exemplified peptides according to the invention using membrane homogenates prepared from HEK-293 cells that express recombinant hMC4-R, hMC3-R, or hMC5-R, and from B-16 mouse melanoma cells (containing endogenous MC1-R). In some instances, HEK-293 cells that express recombinant hMC1-R were employed. Assays were performed in 96 well GF/B Millipore multiscreen filtration plates (MAFB NOB10) pre-coated with 0.5% bovine serum albumin (Fraction V). Membrane homogenates were incubated with 0.2 nM (for hMC4-R) 0.4 nM (for MC3-R and MC5-R) or 0.1 nM (for mouse B16 MC1-R or hMC1-R) [I^125]-NDP-α-MSH (Perkin Elmer) and increasing concentrations of test peptides of the present invention in buffer containing 25 mM HEPES buffer (pH 7.5) with 100 mM NaCl, 2 mM CaCl2, 2 mM MgCl2, 0.3 mM 1,10-phenanthroline, and 0.2% bovine serum albumin. After incubation for 60 minutes at 37° C., the assay mixture was filtered and the membranes washed three times with ice-cold buffer. Filters were dried and counted in a gamma counter for bound radioactivity. […] Maximal specific binding (100%) was defined as the difference in radioactivity (cpm) bound to cell membranes in the absence and presence of 1 μM NDP-α-MSH. […] Each assay was conducted in triplicate and the actual mean values are described, with results less than 0% reported as 0%. Ki values for test peptides of the present invention were determined using Graph-Pad Prism® curve-fitting software.

hMC4-R [2] = biological target: T1, hMC4-R; test: Competitive inhibition binding assay using [I125]-NDP-α-MSH, hMC4-R; conditions: membranes of HEK-293 cells expressing recombinant hMC4-R, read-out: MC4-R Ki
[3] = 0.1 ng/mL Doxycycline (low density hMC4-R system)
[4] = 10 ng/mL Doxycycline (high density hMC4-R system)

T1 sequence (P32245 whole entry): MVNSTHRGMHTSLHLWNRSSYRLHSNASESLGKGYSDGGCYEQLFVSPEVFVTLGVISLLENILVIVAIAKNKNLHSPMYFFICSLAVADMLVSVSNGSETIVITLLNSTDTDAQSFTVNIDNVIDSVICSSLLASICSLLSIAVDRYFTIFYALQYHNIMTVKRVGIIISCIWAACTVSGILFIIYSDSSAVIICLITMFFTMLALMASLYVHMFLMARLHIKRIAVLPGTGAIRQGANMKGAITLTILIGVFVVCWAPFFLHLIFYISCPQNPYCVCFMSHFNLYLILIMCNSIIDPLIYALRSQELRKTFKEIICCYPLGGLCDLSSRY

SMILES: CC(=O)N[C@@H](CCCNC(=N)N)C(=O)N[C@H]1CCC(=O)NCCC[C@@H](C(N)=O)NC(=O)[C@H](Cc2c[nH]c3ccccc23)NC(=O)[C@H](CCCNC(=N)N)NC(=O)[C@@H](Cc2ccccc2Cl)NC(=O)[C@H](CCN)NC1=O [Example 1, Ac-Arg-cyclo(Glu-Dab-D-Phe(2-Cl)-Arg-Trp-Orn)-NH2]
- EC50 (hMC4-R [1]; [3]): 0.34 nM
- Emax (hMC4-R [1]; [3]): 91%
- EC50 (hMC4-R [1]; [4]): 0.045 nM
- Emax (hMC4-R [1]; [4]): 96%
- Ki (MC1-R): 1 nM
- Ki (hMC4-R [2]): 3 nM

SMILES: CC(=O)N[C@@H](CCCNC(=N)N)C(=O)N[C@H]1CCC(=O)NCCC[C@@H](C(N)=O)NC(=O)[C@H](Cc2c[nH]c3ccccc23)NC(=O)[C@H](CCCNC(=N)N)NC(=O)[C@@H](Cc2ccc(Cl)cc2)NC(=O)[C@H](CCN)NC1=O [Example 3, Ac-Arg-cyclo(Glu-Dab-D-Phe(4-Cl)-Arg-Trp-Orn)-NH2]
- EC50 (hMC4-R [1]; [3]): 0.07 nM
- Emax (hMC4-R [1]; [3]): 28%
- EC50 (hMC4-R [1]; [4]): 0.16 nM
- Emax (hMC4-R [1]; [4]): 100%
- Ki (MC1-R): 0.3 nM
- Ki (hMC4-R [2]): 0.08 nM

SMILES: CC(=O)N[C@@H](CCCNC(=N)N)C(=O)N[C@H]1CCC(=O)NCCC[C@@H](C(N)=O)NC(=O)[C@H](Cc2c[nH]c3ccccc23)NC(=O)[C@H](CCCNC(=N)N)NC(=O)[C@@H](Cc2ccc(Cl)cc2Cl)NC(=O)[C@H](CCN)NC1=O [Example 4, Ac-Arg-cyclo(Glu-Dab-D-Phe(2,4-diCl)-Arg-Trp-Orn)-NH2]
- Emax (hMC4-R [1]; [3]): 11%
- EC50 (hMC4-R [1]; [4]): 0.245 nM
- Emax (hMC4-R [1]; [4]): 100%
- Ki (MC1-R): 0.5 nM
- Ki (hMC4-R [2]): 0.055 nM

SMILES: CC(=O)N[C@@H](CCCNC(=N)N)C(=O)N[C@H]1CCC(=O)NCCC[C@@H](C(N)=O)NC(=O)[C@H](Cc2c[nH]c3ccccc23)NC(=O)[C@H](CCCNC(=N)N)NC(=O)[C@@H](Cc2ccc(Cl)c(Cl)c2)NC(=O)[C@H](CCN)NC1=O [Example 5, Ac-Arg-cyclo(Glu-Dab-D-Phe(3,4-diCl)-Arg-Trp-Orn)-NH2]
- Emax (hMC4-R [1]; [3]): 5%
- EC50 (hMC4-R [1]; [4]): 0.38 nM
- Emax (hMC4-R [1]; [4]): 92%
- Ki (MC1-R): 0.2 nM
- Ki (hMC4-R [2]): 0.055 nM

SMILES: CC(=O)N[C@@H](CCCNC(=N)N)C(=O)N[C@H]1CCC(=O)NCCC[C@@H](C(N)=O)NC(=O)[C@H](Cc2c[nH]c3ccccc23)NC(=O)[C@H](CCCNC(=N)N)NC(=O)[C@@H](Cc2cccc(C#N)c2)NC(=O)[C@H](CCN)NC1=O [Example 6, Ac-Arg-cyclo(Glu-Dab-D-Phe(3-CN)-Arg-Trp-Orn)-NH2]
- EC50 (hMC4-R [1]; [3]): 37 nM
- Emax (hMC4-R [1]; [3]): 29%
- EC50 (hMC4-R [1]; [4]): 2 nM
- Emax (hMC4-R [1]; [4]): 100%
- Ki (MC1-R): 43 nM
- Ki (hMC4-R [2]): 33 nM

SMILES: CC(=O)N[C@@H](CCCNC(=N)N)C(=O)N[C@H]1CCC(=O)NCCC[C@@H](C(N)=O)NC(=O)[C@H](Cc2c[nH]c3ccccc23)NC(=O)[C@H](CCCNC(=N)N)NC(=O)[C@@H](Cc2cccc(F)c2)NC(=O)[C@H](CCN)NC1=O [Example 10, Ac-Arg-cyclo(Glu-Dab-D-Phe(3-F)-Arg-Trp-Orn)-NH2]
- EC50 (hMC4-R [1]; [3]): 0.45 nM
- Emax (hMC4-R [1]; [3]): 77%
- EC50 (hMC4-R [1]; [4]): 0.17 nM
- Emax (hMC4-R [1]; [4]): 94%
- Ki (MC1-R): 2 nM
- Ki (hMC4-R [2]): 2 nM

SMILES: CC(=O)N[C@@H](CCCNC(=N)N)C(=O)N[C@H]1CCC(=O)NCCC[C@@H](C(N)=O)NC(=O)[C@H](Cc2c[nH]c3ccccc23)NC(=O)[C@H](CCCNC(=N)N)NC(=O)[C@@H](Cc2ccc(F)cc2)NC(=O)[C@H](CCN)NC1=O [Example 11, Ac-Arg-cyclo(Glu-Dab-D-Phe(4-F)-Arg-Trp-Orn)-NH2]
- EC50 (hMC4-R [1]; [3]): 0.065 nM
- Emax (hMC4-R [1]; [3]): 83%
- EC50 (hMC4-R [1]; [4]): 0.06 nM
- Emax (hMC4-R [1]; [4]): 90%
- Ki (MC1-R): 0.5 nM
- Ki (hMC4-R [2]): 0.25 nM

SMILES: CC(=O)N[C@@H](CCCNC(=N)N)C(=O)N[C@H]1CCC(=O)NCCC[C@@H](C(N)=O)NC(=O)[C@H](Cc2c[nH]c3ccccc23)NC(=O)[C@H](CCCNC(=N)N)NC(=O)[C@@H](Cc2ccccc2C(F)(F)F)NC(=O)[C@H](CCN)NC1=O [Example 13, Ac-Arg-cyclo(Glu-Dab-D-Phe(2-CF3)-Arg-Trp-Orn)-NH2]
- EC50 (hMC4-R [1]; [3]): 0.125 nM
- Emax (hMC4-R [1]; [3]): 85%
- EC50 (hMC4-R [1]; [4]): 0.06 nM
- Emax (hMC4-R [1]; [4]): 96%
- Ki (MC1-R): 3 nM
- Ki (hMC4-R [2]): 0.6 nM

SMILES: COc1ccc(C[C@H]2NC(=O)[C@H](CCN)NC(=O)[C@@H](NC(=O)[C@H](CCCNC(=N)N)NC(C)=O)CCC(=O)NCCC[C@@H](C(N)=O)NC(=O)[C@H](Cc3c[nH]c4ccccc34)NC(=O)[C@H](CCCNC(=N)N)NC2=O)cc1 [Example 16, Ac-Arg-cyclo(Glu-Dab-D-Phe(4-OMe)-Arg-Trp-Orn)-NH2]
- EC50 (hMC4-R [1]; [3]): 0.15 nM
- Emax (hMC4-R [1]; [3]): 28%
- EC50 (hMC4-R [1]; [4]): 0.16 nM
- Emax (hMC4-R [1]; [4]): 97%
- Ki (MC1-R): 0.15 nM
- Ki (hMC4-R [2]): 0.25 nM

SMILES: CC(=O)N[C@@H](CCCNC(=N)N)C(=O)N[C@H]1CCC(=O)NCCC[C@@H](C(N)=O)NC(=O)[C@H](Cc2c[nH]c3ccccc23)NC(=O)[C@H](CCCNC(=N)N)NC(=O)[C@@H](Cc2ccccc2Cl)NC(=O)[C@H](CO)NC1=O [Example 31, Ac-Arg-cyclo(Glu-Ser-D-Phe(2-Cl)-Arg-Trp-Orn)-NH2]
- EC50 (hMC4-R [1]; [3]): 7 nM
- Emax (hMC4-R [1]; [3]): 33%
- Emax (hMC4-R [1]; [4]): 98%
- Ki (MC1-R): 300 nM
- Ki (hMC4-R [2]): 8 nM

SMILES: CC(=O)N[C@@H](CCCNC(=N)N)C(=O)N[C@H]1CCC(=O)NCCC[C@@H](C(N)=O)NC(=O)[C@H](Cc2c[nH]c3ccccc23)NC(=O)[C@H](CCCNC(=N)N)NC(=O)[C@@H](Cc2ccccc2F)NC(=O)[C@H](CO)NC1=O [Example 58, Ac-Arg-cyclo(Glu-Ser-D-Phe(2-F)-Arg-Trp-Orn)-NH2]
- EC50 (hMC4-R [1]; [3]): 5 nM
- Emax (hMC4-R [1]; [3]): 67%
- EC50 (hMC4-R [1]; [4]): 0.25 nM
- Emax (hMC4-R [1]; [4]): 100%
- Ki (MC1-R): 138 nM

SMILES: CC(=O)N[C@@H](CCCNC(=N)N)C(=O)N[C@H]1CCC(=O)NCCC[C@@H](C(=O)O)NC(=O)[C@H](Cc2c[nH]c3ccccc23)NC(=O)[C@H](CCCNC(=N)N)NC(=O)[C@@H](Cc2ccc(C#N)cc2)NC(=O)[C@H](CCC(N)=O)NC1=O [Example 86, Ac-Arg-cyclo(Glu-Gln-D-Phe(4-CN)-Arg-Trp-Orn)-OH]
- EC50 (hMC4-R [1]; [3]): 9 nM
- Emax (hMC4-R [1]; [3]): 36%
- Emax (hMC4-R [1]; [4]): 96%
- Ki (MC1-R): 3970 nM

SMILES: CC(=O)N[C@@H](CCCNC(=N)N)C(=O)N[C@H]1CCC(=O)NCCC[C@@H](C(N)=O)NC(=O)[C@H](Cc2c[nH]c3ccccc23)NC(=O)[C@H](CCCNC(=N)N)NC(=O)[C@@H](Cc2ccc(C#N)cc2)NC(=O)[C@H](CC(=O)O)NC1=O [Example 106, Ac-Arg-cyclo(Glu-Asp-D-Phe(4-CN)-Arg-Trp-Orn)-NH2] (Ac-RED[dPhe(4-CN)]RW[Orn]-NH2; lactam 2-7)
- Emax (hMC4-R [1]; [3]): 3%
- Emax (hMC4-R [1]; [4]): 77%
- Ki (MC1-R): 10000 nM

SMILES: CC(=O)N[C@@H](CCCNC(=N)N)C(=O)N[C@H]1CCC(=O)NCCC[C@@H](C(=O)O)NC(=O)[C@H](Cc2c[nH]c3ccccc23)NC(=O)[C@H](CCCNC(=N)N)NC(=O)[C@@H](Cc2ccc(C#N)cc2)NC(=O)[C@H](CC(=O)O)NC1=O [Example 107, Ac-Arg-cyclo(Glu-Asp-D-Phe(4-CN)-Arg-Trp-Orn)-OH] (Ac-RED[dPhe(4-CN)]RW[Orn]-OH; lactam 2-7)
- Emax (hMC4-R [1]; [3]): 4%
- Emax (hMC4-R [1]; [4]): 64%
- Ki (MC1-R): 10000 nM

SMILES: CC(=O)N[C@@H](CCCNC(=N)N)C(=O)N[C@H]1CCC(=O)NCCC[C@@H](C(N)=O)NC(=O)[C@H](Cc2c[nH]c3ccccc23)NC(=O)[C@H](CCCNC(=N)N)NC(=O)[C@@H](Cc2ccc(C#N)cc2)NC(=O)[C@H](CCC(=O)O)NC1=O [Example 108, Ac-Arg-cyclo(Glu-Glu-D-Phe(4-CN)-Arg-Trp-Orn)-NH2] (Ac-REE[dPhe(4-CN)]RW[Orn]-NH2; lactam 2-7)
- Emax (hMC4-R [1]; [3]): 3%
- EC50 (hMC4-R [1]; [4]): 9 nM
- Emax (hMC4-R [1]; [4]): 59%
- Ki (MC1-R): 10000 nM
